In ChEMBL document CHEMBL3507680, “University of Dundee, Gates Library screen for HepG2 cell viability”:

Assay: Human HepG2 cell viability assay in 384 well format
Format: toxicity, cell-based
Design: dose 125 nL, time 70.5 hour; concentration not given beside the values
Details: HepG2 cells, read-out: Inhibition
Compound `NC(=O)c1c(-c2ccc(Cl)cc2Cl)csc1NC(=O)CCCC(=O)O` has a cytotoxicity at 70.5 h of 4.32%. With `Cn1ncc2c(=O)[nH]c(N3CCCC3c3cccs3)nc21` (stereo not given) the cytotoxicity at 70.5 h was 17.2%. Work on `CC(CNS(N)(=O)=O)Oc1ccc(Cl)cc1` (stereo not given) yielded a cytotoxicity at 70.5 h of 1.53%. With `CN(C)C(=O)[C@@H]1C[C@@H]2[C@@H](CCN2Cc2nccs2)O1` the cytotoxicity at 70.5 h was -5.24%. `N#Cc1ccc(CN2CCCCC2Cn2cccn2)cc1` (stereo not given) showed a cytotoxicity at 70.5 h of 16%. With `CN(CCC(=O)N1CCc2sccc2C1)Cc1ccc2c(c1)OCCO2` the cytotoxicity at 70.5 h was -2.14%. For `O=C(CCC1CCN(C(=O)c2csnn2)CC1)NCc1cccc(Cl)c1`, the cytotoxicity at 70.5 h was 7.85%. In the case of `CN(Cc1ccco1)C[C@H]1OC[C@@H]2CCN(Cc3cccs3)C[C@@H]21`, the cytotoxicity at 70.5 h was -13.4%. `Cc1nc2n(n1)CCN(S(=O)(=O)c1ccc(OC(F)(F)F)cc1)C2` showed a cytotoxicity at 70.5 h of -1.32%. For `CCn1c(CN2CCCC2)nnc1C1CCN(Cc2cccnc2)CC1`, the cytotoxicity at 70.5 h was 19.5%. `Cc1ccc(N2CCCC(NCc3ccc4c(c3)CCO4)C2)nn1` (stereo not given) gave a cytotoxicity at 70.5 h of 4.47%. In the case of `O=C(NCCn1ccnc1)C1COCC(=O)N1Cc1ccccc1` (stereo not given), the cytotoxicity at 70.5 h was 9.74%. `Cc1ccc(NC2CCN(C(=O)c3cc(C(N)=O)cs3)CC2)nn1` showed a cytotoxicity at 70.5 h of 11.5%. `COC(=O)[C@H]1CN(C(=O)NC(C)C)CCN1C(=O)CSC` showed a cytotoxicity at 70.5 h of -5.64%. For `CCSCCC(=O)NCCn1nc2ccccn2c1=O`, the cytotoxicity at 70.5 h was -7.12%. `CC(Cn1cccn1)NC(=O)N(C)Cc1ccc(Cl)s1` (stereo not given) gave a cytotoxicity at 70.5 h of -16.6%. With `Cc1ccccc1CSc1nc(N)cc(N2CCOCC(CO)C2)n1` (stereo not given) the cytotoxicity at 70.5 h was 6.16%. `O=S1(=O)N=C(SCc2ccc(Cl)cc2)Nc2ccc(F)cc21` gave a cytotoxicity at 70.5 h of 7.01%. Work on `O=C1NCC[C@]12CN(CC1CCOCC1)C[C@H]2c1ccccc1` yielded a cytotoxicity at 70.5 h of -7.01%. In the case of `CC(C)[C@H](NC(=O)NC1CCS(=O)(=O)C1)C(=O)NCc1cccnc1` (stereo not given in full), the cytotoxicity at 70.5 h was 6.1%. In the case of `Cc1cc(CNC(=O)NCc2ccccc2N2CCOCC2)no1`, the cytotoxicity at 70.5 h was 1.76%. `Cc1cc2n(n1)CC(CNCCc1cnn(C)c1)CN2` (stereo not given) showed a cytotoxicity at 70.5 h of 34.9%. In the case of `O=S(=O)(Nc1c(F)cccc1N1CCCC1)c1cncc(F)c1`, the cytotoxicity at 70.5 h was -5.83%. In the case of `O=C(c1ccccc1)C1CCN(C(=O)CC2COCCN2)CC1` (stereo not given), the cytotoxicity at 70.5 h was 1.52%. Work on `Cc1nc2c(c(=O)[nH]1)CN(C(=O)CC[C@@H]1CCCN3CCCC[C@H]13)C2` yielded a cytotoxicity at 70.5 h of 24.5%. For `O=C(CCC1CCCC1)NCCn1nc(C2CCNC2)c2nccnc21` (stereo not given), the cytotoxicity at 70.5 h was 34.9%. Compound `CCN(Cc1cccc2c1OCO2)C(=O)NCc1ccccn1` has a cytotoxicity at 70.5 h of 13.5%. Work on `CCN(CCSc1ccccc1)C(=O)c1cn([C@H]2CC[C@@H](N)CC2)nn1` yielded a cytotoxicity at 70.5 h of -11.7%. In the case of `CCc1ccc(CNC(=O)NC(C)CN2CCOCC2)s1` (stereo not given), the cytotoxicity at 70.5 h was 6.35%. Work on `C1CCCN(CC2CCCN(Cc3noc(C4CC4)n3)C2)CC1` (stereo not given) yielded a cytotoxicity at 70.5 h of 0.15%. `CS(=O)(=O)N1CCCC1c1ccnc2nccn12` (stereo not given) showed a cytotoxicity at 70.5 h of -12.2%. With `CC(C)(C)OC(=O)N1CCN(c2nnc(Br)s2)CC1` the cytotoxicity at 70.5 h was 18.7%. In the case of `O=C(Nc1cnc(Oc2ccccc2F)nc1)C1CC1`, the cytotoxicity at 70.5 h was -3.71%. For `c1cc(CN2C[C@@H]3OCCN(CCN4CCCC4)[C@@H]3C2)ccn1`, the cytotoxicity at 70.5 h was -8.99%. In the case of `Cc1cc(F)cc(CN2CCCn3nc(CNS(C)(=O)=O)cc3C2)c1`, the cytotoxicity at 70.5 h was 0.898%. `CN(C)CC1(O)CCN(C(=O)c2cnc(-c3cccnc3)nc2)C1` (stereo not given) gave a cytotoxicity at 70.5 h of 3.5%. `CNC(=O)NC(=O)C(C)N(C)CCCc1cc(-c2ccccc2)no1` (stereo not given) showed a cytotoxicity at 70.5 h of -1.15%. In the case of `COc1ccc(C(=O)C2CCCN(c3cc(C#N)ccn3)C2)cc1F` (stereo not given), the cytotoxicity at 70.5 h was -6.04%. Compound `O=C1NCCCCC1SCc1coc(-c2ccc(F)cc2)n1` (stereo not given) has a cytotoxicity at 70.5 h of 20.1%. In the case of `Nc1ncc(-c2ccc(C(F)(F)F)cc2)c(C2CCCNC2)n1` (stereo not given), the cytotoxicity at 70.5 h was 0.61%. With `CNC(=O)NCc1nn(-c2ccccc2)c2c1CCC2` the cytotoxicity at 70.5 h was -4.98%. For `CC(C)(CO)N1CCN(S(=O)(=O)CCCF)CC1`, the cytotoxicity at 70.5 h was -8.05%. `COCc1nn(Cc2ccc(Br)s2)c(=O)o1` showed a cytotoxicity at 70.5 h of -9.84%. `CC(NCc1nnc2n1CCCC2)c1nc(Cc2ccccc2)no1` (stereo not given) showed a cytotoxicity at 70.5 h of -8.89%. `NCC1CCN(c2cnn(CCCn3cccn3)c(=O)c2)CC1` gave a cytotoxicity at 70.5 h of -8.18%. Work on `CCC(C(=O)Nc1ccc2nc(C)oc2c1)N1CCCC1=O` (stereo not given) yielded a cytotoxicity at 70.5 h of 20.5%. Work on `CC(NC(=O)CCCOc1ccccc1Cl)c1ccncc1` (stereo not given) yielded a cytotoxicity at 70.5 h of 13.5%. For `O=C(NCc1nnc2n1C(C(=O)NC1CC1)CC2)c1ccc(Cl)cc1Cl` (stereo not given), the cytotoxicity at 70.5 h was 4.24%. Work on `CC(C)(C)C1SCC(=O)Nc2c1c(O)nn2C1CCCC1` (stereo not given) yielded a cytotoxicity at 70.5 h of -21.9%. Work on `COC(=O)c1cccc2nc([C@H]3CCN(Cc4ccccc4C)C3)oc12` yielded a cytotoxicity at 70.5 h of -14.2%. In the case of `COCCN(C)S(=O)(=O)c1cc(C)cc(F)c1`, the cytotoxicity at 70.5 h was -5.49%. `COc1cc(N2CC[C@@H]3O[C@H](C(=O)N(C)C)C[C@@H]32)ncn1` showed a cytotoxicity at 70.5 h of -17.2%. Work on `O=S(=O)(c1cccs1)N1CC[C@H]2[C@H]1CCN2c1ncccn1` yielded a cytotoxicity at 70.5 h of -4.67%. Compound `O=C(NCc1cn2c(n1)CN(Cc1nccs1)CC2)C1CCC1` has a cytotoxicity at 70.5 h of -6.31%. In the case of `O=C1CC2(CCN(Cc3cccnc3)C2)CN1c1ccc2c(c1)OCO2` (stereo not given), the cytotoxicity at 70.5 h was 12.8%. `Cc1ccc(N2CCC(NC(C)c3cccs3)CC2)nc1` (stereo not given) showed a cytotoxicity at 70.5 h of -2.5%. With `CCN1CCN(C[C@H]2CC[C@@H](Cc3ccc4c(c3)OCO4)O2)CC1` the cytotoxicity at 70.5 h was -5.47%. `O=C(N[C@@H]1CN(Cc2ccccc2)C[C@@H]2CCCO[C@@H]21)C1CC1` showed a cytotoxicity at 70.5 h of -1.76%. `Cc1cccc(CN2CCO[C@H]3[C@H](Oc4ccccn4)CC[C@@H]32)n1` gave a cytotoxicity at 70.5 h of -1.62%. With `Cc1ccc(SC2CCCC2)c(C(=O)NCCc2n[nH]c(=O)[nH]2)c1` the cytotoxicity at 70.5 h was 2.84%. For `NC(=O)C1CCN(CCCNC(=O)Nc2nncs2)CC1`, the cytotoxicity at 70.5 h was -14.5%. `CN(CCc1ccccn1)C(=O)CCC1CCCN(c2ncccn2)C1` (stereo not given) gave a cytotoxicity at 70.5 h of -1.54%. `Cc1c(C(C)NC(=O)Nc2ccc(F)c(F)c2)cnn1C` (stereo not given) gave a cytotoxicity at 70.5 h of -3.96%. With `Cc1ccc(Nc2ncnc3c2CCN(CC2CCOC2)CC3)cc1` (stereo not given) the cytotoxicity at 70.5 h was -7.38%. `Cc1ccc(F)c(C(=O)N2CCC(Nc3ccc(C)nn3)CC2)c1` gave a cytotoxicity at 70.5 h of -2.35%. `O=C(NCc1ccccc1F)Nc1ccn(CCN2CCOCC2)n1` gave a cytotoxicity at 70.5 h of -15.3%. With `O=S1(=O)C[C@@H]2[C@H](C1)N(Cc1ncc[nH]1)CCN2CC1CC1` the cytotoxicity at 70.5 h was -5.56%. `Cc1cc(-c2cc3nc(C)c(C)c(NCC4COCCO4)n3n2)no1` (stereo not given) showed a cytotoxicity at 70.5 h of -5.97%. With `CCc1nccn1-c1cccc(C2CCCN(C3CCCCC3)C2)n1` (stereo not given) the cytotoxicity at 70.5 h was -0.595%. `Cc1cc(C(C)NC(=O)c2cnc3onc(C)c3c2)c(C)o1` (stereo not given) showed a cytotoxicity at 70.5 h of -5.78%. `Cc1csc(CNCc2c(C)nn(C)c2N2CCOCC2)n1` showed a cytotoxicity at 70.5 h of -0.213%. With `CN(C(=O)C1CCOCC1)[C@@H]1CCC[C@@H](N2CCOCC2)[C@@H]1O` the cytotoxicity at 70.5 h was -5.89%. `COCCC1COC2(CCN(C(=O)c3ccccc3)CC2)C1` (stereo not given) showed a cytotoxicity at 70.5 h of -7.59%. Compound `CN1CCN(Cc2noc(CCc3nc(-c4ccccc4)no3)n2)CC1` has a cytotoxicity at 70.5 h of -6.63%. `CN(C)CC(=O)N1Cc2cc(N(C)C)ccc2C1c1cnco1` (stereo not given) showed a cytotoxicity at 70.5 h of -12.7%. `COc1cccc(CN2CCN3C(=O)NC[C@H]3C2)n1` showed a cytotoxicity at 70.5 h of -7.27%. Compound `CCC(C(=O)NCCc1nc(C)cc(C(F)(F)F)n1)n1cccn1` (stereo not given) has a cytotoxicity at 70.5 h of 20%. `CC(=O)c1cn(CC(=O)N[C@H](C(=O)O)C(C)C)c2ccccc12` gave a cytotoxicity at 70.5 h of -13.5%. Compound `CCOCc1ccc(CNc2nc(OC)ncc2Cl)cc1` has a cytotoxicity at 70.5 h of -10.8%. Work on `CCc1cc(N2CCN3CCCCC3C2)n2nccc2n1` (stereo not given) yielded a cytotoxicity at 70.5 h of -8.87%.
